{
  "source": "patent US10550102B2",
  "about": "“Indane and indoline derivatives and the use thereof as soluble guanylate cyclase activators” (NOVARTIS AG, priority 2014, dated 2020)",
  "data": [
    {"target": "soluble guanylate cyclase (human GUCYA3 and GUCYB3) overexpressed in CHO cells (Homo sapiens (Human), UniProt Q02108+Q02153)", "sequence (Q02108 whole entry partner)": "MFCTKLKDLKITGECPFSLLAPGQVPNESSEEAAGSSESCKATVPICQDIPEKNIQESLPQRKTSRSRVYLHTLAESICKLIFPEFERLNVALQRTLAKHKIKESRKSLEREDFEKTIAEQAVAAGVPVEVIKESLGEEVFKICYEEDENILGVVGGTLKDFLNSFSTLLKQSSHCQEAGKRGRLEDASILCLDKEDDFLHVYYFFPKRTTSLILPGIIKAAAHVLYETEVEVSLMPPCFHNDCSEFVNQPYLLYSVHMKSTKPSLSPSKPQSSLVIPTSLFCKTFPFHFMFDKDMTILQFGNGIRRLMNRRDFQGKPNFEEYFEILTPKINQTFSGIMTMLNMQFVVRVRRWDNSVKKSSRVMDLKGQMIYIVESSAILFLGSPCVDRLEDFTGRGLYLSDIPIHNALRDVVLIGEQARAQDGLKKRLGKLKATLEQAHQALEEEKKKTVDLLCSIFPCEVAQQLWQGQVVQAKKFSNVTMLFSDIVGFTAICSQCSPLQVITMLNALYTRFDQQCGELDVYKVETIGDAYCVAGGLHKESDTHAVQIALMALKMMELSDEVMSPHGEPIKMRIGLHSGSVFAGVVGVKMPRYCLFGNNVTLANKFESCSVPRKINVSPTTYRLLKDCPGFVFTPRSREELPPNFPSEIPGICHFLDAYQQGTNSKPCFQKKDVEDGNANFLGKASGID", "sequence (Q02153 whole entry)": "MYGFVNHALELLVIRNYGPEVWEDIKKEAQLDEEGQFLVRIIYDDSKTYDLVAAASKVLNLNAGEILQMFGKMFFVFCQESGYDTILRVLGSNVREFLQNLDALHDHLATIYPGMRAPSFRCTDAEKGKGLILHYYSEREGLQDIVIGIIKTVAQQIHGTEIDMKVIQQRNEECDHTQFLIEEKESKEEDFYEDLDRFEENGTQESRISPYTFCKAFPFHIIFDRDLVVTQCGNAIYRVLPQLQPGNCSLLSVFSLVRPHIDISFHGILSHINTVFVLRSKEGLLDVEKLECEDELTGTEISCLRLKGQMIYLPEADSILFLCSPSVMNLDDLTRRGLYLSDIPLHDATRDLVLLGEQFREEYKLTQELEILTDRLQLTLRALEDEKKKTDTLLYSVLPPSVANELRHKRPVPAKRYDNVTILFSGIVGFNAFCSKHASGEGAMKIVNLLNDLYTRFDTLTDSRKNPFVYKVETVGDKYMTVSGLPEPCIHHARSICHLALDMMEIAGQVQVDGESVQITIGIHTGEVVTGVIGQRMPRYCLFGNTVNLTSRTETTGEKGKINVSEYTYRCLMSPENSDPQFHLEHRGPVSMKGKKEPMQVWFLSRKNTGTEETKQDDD", "experiment": "CHO cellular assay (cGMP production, Cisbio cGMP HTRF kit)", "type": "cell-based", "settings": "CHO GUCY clone 8E10, cGMP production, assay buffer with 1 mM IBMX and 20 uM ODQ, 1 h room temperature; minimum quantification limit 0.5 nM (listed 0.5 nM means ≤0.5 nM); read-out: EC50", "text": "Chinese hamster ovary (CHO) cells overexpressing soluble guanylate cyclase were generated to test the effect of sGC activators in a cellular context. Human cDNAs for GUCYA3 (RefSeq: NM_000856.3) and GUCYB3 (RefSeq: NM_000857.1) were amplified by PCR from a HUVEC (Human Umbilical Vein Endothelial Cells) cDNA library and cloned into mammalian expression vectors. CHO K1 cells (ATCC CCL-61) were transfected using Lipofectamine 2000 following manufacturer's instructions and stably expressing clones were identified by antibiotic selection. CHO GUCY clone 8E10 was used for subsequent experiments. Cells were seeded at a density of 3000 cells/well in white 384-well proxyplates (Perkin Elmer) and incubated overnight, then the medium was removed and cells were washed with assay buffer (HBSS, 0.1% BSA. 1 mM IBMX, 20 uM ODQ). sGC activators were serially diluted in DMSO, then diluted in assay buffer prior to adding to cells (10 ul/well, final DMSO concentration 0.5%). Cells were incubated with compounds for 1 h room temperature, then assayed for cGMP production using Cisbio cGMP HTRF kit (62GM2PEC) according to manufacturer's instructions. The EC50s are calculated based on the amount of cGMP interpolated from the standard curve, using a 4-parameter sigmoidal dose-response.", "units": {"EC50": "nM"}, "values": [
      {"compound": "Cc1cc2c(c(-c3cccc(-n4ncc(C(=O)O)c4C(F)(F)F)n3)c1)C(Nc1ccc(C3CCN(C(=O)C4CC4)CC3)cc1C)CC2", "note": "(racemic) [Example 11-1, (±)-1-(6-(3-((4-(1-(cyclopropanecarbonyl)piperidin-4-yl)-2-methylphenyl)amino)-6-methyl-2,3-dihydro-1H-inden-4-yl)pyridin-2-yl)-5-(trifluoromethyl)-1H-pyrazole-4-carboxylic acid]", "EC50": 1},
      {"compound": "Cc1cc(C2CCN(C(=O)C3CC3)CC2)ccc1NC1CCc2cccc(-c3cccc(-n4ncc(C(=O)O)c4C)c3)c21", "note": "(racemic) [Example 11-4, (±)-1-(3-(3-((4-(1-(cyclopropanecarbonyl)piperidin-4-yl)-2-methylphenyl)amino)-2,3-dihydro-1H-inden-4-yl)phenyl)-5-methyl-1H-pyrazole-4-carboxylic acid]", "EC50": "≤ 0.5"},
      {"compound": "Cc1cc(C2CCN(c3ccccn3)CC2)ccc1NC1CCc2cccc(-c3cccc(-n4ncc(C(=O)O)c4C)n3)c21", "note": "(racemic) [Example 59, (±)-Methyl-16-(3-((2-methyl-4-(1-(pyridin-2-yl)piperidin-4-yl)phenyl)amino)-2,3-dihydro-1H-inden-4-yl)pyridin-2-yl)-1H-pyrazole-4-carboxylic Acid]", "EC50": 1},
      {"compound": "Cc1cc(C2CCN(C3CC3)CC2)ccc1NC1CCc2cccc(-c3cccc(-n4ncc(C(=O)O)c4C)n3)c21", "note": "(racemic) [Example 60, (±)-1-(6-(3-(4-(1-Cyclopropylpiperidin-4-yl)-2-methylphenyl)amino)-2,3-dihydro-1H-inden-4-yl)pyridin-2-yl)-5-methyl-1H-pyrazole-4-carboxylic Acid]", "EC50": 5.3},
      {"compound": "Cc1cc(C2CCN(C(=O)C3CC3)CC2)cnc1NC1CCc2cccc(-c3cccc(-n4ncc(C(=O)O)c4C)n3)c21", "note": "(racemic) [Example 62, (±)-1-(6-(3-((5-(1-Cyclopropanecarbonyl)piperidin-4-yl)-3-methylpyridin-2-yl)amino)-2,3-dihydro-1H-inden-4-yl)pyridin-2-yl)-5-methyl-1H-pyrazole-4-carboxylic Acid]", "EC50": 6},
      {"compound": "CCC(=O)N1CCC(c2ccc(NC3CCc4cccc(-c5cccc(-n6ncc(C(=O)O)c6C)n5)c43)c(C)c2)CC1", "note": "(single isomer, unassigned) [(+)-46-2, (−)-5-Methyl-1-(6-(3-((2-methyl-4-(1-propionylpiperidin-4-yl)phenyl)amino)-2,3-dihydro-1H-inden-4-yl)pyridin-2-yl)-1H-pyrazole-4-carboxylic acid]", "EC50": 1},
      {"compound": "CCc1cc(CN2CC(C)c3cccc(-c4cccc(-n5ncc(C(=O)O)c5CC)n4)c32)ccc1C1CCN(C(=O)[C@H](C)O)CC1", "note": "(single isomer, unassigned) [Example 17a]", "EC50": "≤ 0.5"},
      {"compound": "CCc1cc(O[C@H]2CCc3cccc(-c4cccc(-n5ncc(C(=O)O)c5CC)n4)c32)ccc1C1CCN(C(=O)C(C)CCO)CC1", "note": "(single isomer, unassigned) [Example 32a]", "EC50": "≤ 0.5"},
      {"compound": "Cc1c(NC2CCc3cccc(-c4cccc(-n5ncc(C(=O)O)c5C)n4)c32)ccc(C2CCN(C(=O)CC3CC3)CC2)c1F", "note": "(single isomer, unassigned) [Example (+) or (−)-46-4, 1-(6-(3-((4-(1-(2-cyclopropylacetyl)piperidin-4-yl)-3-fluoro-2-methylphenyl)amino)-2,3-dihydro-1H-inden-4-yl)pyridin-2-yl)-5-methyl-1H-pyrazole-4-carboxylic acid]", "EC50": 1.4},
      {"compound": "Cc1c(NC2CCc3cccc(-c4cccc(-n5ncc(C(=O)O)c5C)n4)c32)ccc(C2CCN(C(=O)CC3CC3)CC2)c1F", "note": "(single isomer, unassigned) [Example (−) or (+)-46-4, 1-(6-(3-((4-(1-(2-cyclopropylacetyl)piperidin-4-yl)-3-fluoro-2-methylphenyl)amino)-2,3-dihydro-1H-inden-4-yl)pyridin-2-yl)-5-methyl-1H-pyrazole-4-carboxylic acid]", "EC50": 136},
      {"compound": "CCc1cc(CC2CCc3cccc(-c4cccc(-n5ncc(C(=O)O)c5CC)n4)c32)ccc1C1CCN(C(=O)C2CC2)CC1", "note": "(single isomer, unassigned; (+)) [38-1 (+), (+)-1-(6-(3-(4-(1-(cyclopropanecarbonyl)piperidin-4-yl)-3-ethylbenzyl)-2,3-dihydro-1H-inden-4-yl)pyridin-2-yl)-5-ethyl-1H-pyrazole-4-carboxylic acid]", "EC50": "≤ 0.5"},
      {"compound": "CCc1cc(CC2CCc3cccc(-c4cccc(-n5ncc(C(=O)O)c5C)n4)c32)ccc1C1CCN(C(=O)C2CC2)CC1", "note": "(single isomer, unassigned; (+)) [38-2 (+), (+)-1-(6-(3-(4-(1-(cyclopropanecarbonyl)piperidin-4-yl)-3-ethylbenzyl)-2,3-dihydro-1H-inden-4-yl)pyridin-2-yl)-5-methyl-1H-pyrazole-4-carboxylic acid]", "EC50": "≤ 0.5"},
      {"compound": "CCc1c(C(=O)O)cnn1-c1cccc(-c2cccc3c2C(Cc2ccc(C4CCN(C(=O)C5CC5)CC4)cc2C)CC3)n1", "note": "(single isomer, unassigned; (+)) [38-3 (+), (+)-1-(6-(3-(4-(1-(cyclopropanecarbonyl)piperidin-4-yl)-2-methylbenzyl)-2,3-dihydro-1H-inden-4-yl)pyridin-2-yl)-5-ethyl-1H-pyrazole-4-carboxylic acid]", "EC50": "≤ 0.5"},
      {"compound": "CCC[C@H](O)C(=O)N1CCC(c2ccc(CC3CCc4cccc(-c5cccc(-n6ncc(C(=O)O)c6CC)n5)c43)cc2CC)CC1", "note": "(single isomer, unassigned; (+)) [40-1 (+)]", "EC50": "≤ 0.5"},
      {"compound": "CCc1c(C(=O)O)cnn1-c1cccc(-c2cccc3c2C(Cc2ccc(C4CCN(C(=O)[C@H](C)O)CC4)cc2C)CC3)n1", "note": "(single isomer, unassigned; (+)) [40-2 (+)]", "EC50": "≤ 0.5"},
      {"compound": "CCC[C@H](O)C(=O)N1CCC(c2ccc(CC3CCc4cccc(-c5cccc(-n6ncc(C(=O)O)c6CC)n5)c43)c(C)c2)CC1", "note": "(single isomer, unassigned; (+)) [40-3 (+)]", "EC50": "≤ 0.5"},
      {"compound": "Cc1cc2c(c(-c3cccc(-n4ncc(C(=O)O)c4C(F)(F)F)n3)c1)C(Nc1ccc(C3CCN(C(=O)C4CC4)CC3)cc1C)CC2", "note": "(single isomer, unassigned; (+)) [43 (+), (+)-1-(6-(3-((4-(1-(Cyclopropanecarbonyl)piperidin-4-yl)-2-methylphenyl)amino)-6-methyl-2,3-dihydro-1H-inden-4-yl)pyridin-2-yl)-5-(trifluoromethyl)-1H-pyrazole-4-carboxylic acid]", "EC50": 1},
      {"compound": "Cc1cc(C2CCN(C(=O)C3CC3)CC2)ccc1NC1CCc2cccc(-c3cccc(-n4ncc(C(=O)O)c4C)c3)c21", "note": "(single isomer, unassigned; (+)) [44 (+), (+)-1-(3-(3-((4-(1-(cyclopropanecarbonyl)piperidin-4-yl)-2-methylphenyl)amino)-2,3-dihydro-1H-inden-4-yl)phenyl)-5-methyl-1H-pyrazole-4-carboxylic acid]", "EC50": "≤ 0.5"},
      {"compound": "Cc1cc(C2CCN(C(=O)C3CC3)CC2)ccc1CC1CCc2cccc(-c3cccc(-n4ncc(C(=O)O)c4C)c3)c21", "note": "(single isomer, unassigned; (+)) [54. b). (+), (+)-1-(3-(3-(4-(1-(cyclopropanecarbonyl)piperidin-4-yl)-2-methylbenzyl)-2,3-dihydro-1H-inden-4-yl)phenyl)-5-methyl-1H-pyrazole-4-carboxylic acid]", "EC50": 1},
      {"compound": "CCc1cc(CC2CCc3cccc(-c4cccc(-n5ncc(C(=O)O)c5C)c4)c32)ccc1C1CCN(C(=O)C2CC2)CC1", "note": "(single isomer, unassigned; (+)) [55-1 (+), (+)-1-(3-(3-(4-(1-(cyclopropanecarbonyl)piperidin-4-yl)-3-ethylbenzyl)-2,3-dihydro-1H-inden-4-yl)phenyl)-5-methyl-1H-pyrazole-4-carboxylic acid]", "EC50": "≤ 0.5"},
      {"compound": "Cc1nnc(N2CCC(c3ccc(NC4CCc5cccc(-c6cccc(-n7ncc(C(=O)O)c7C)n6)c54)c(C)c3)CC2)o1", "note": "(single isomer, unassigned; (+)) [58. b). (+), (+)-5-methyl-1-(6-(3-((2-methyl-4-(1-(5-methyl-1,3,4-oxadiazol-2-yl)piperidin-4-yl)phenyl)amino)-2,3-dihydro-1H-inden-4-yl)pyridin-2-yl)-1H-pyrazole-4-carboxylic acid]", "EC50": "≤ 0.5"},
      {"compound": "CCc1cc(CN2CC(C)c3cccc(-c4cccc(-n5ncc(C(=O)O)c5CC)n4)c32)ccc1C1CCN(C(=O)C2CC2)CC1", "note": "(single isomer, unassigned; (+)) [(+)-20-1, (+)-1-(6-(1-(4-(1-(Cyclopropanecarbonyl)piperidin-4-yl)-3-ethylbenzyl)-3-methylindolin-7-yl)pyridin-2-yl)-5-ethyl-1H-pyrazole-4-carboxylic acid]", "EC50": "≤ 0.5"},
      {"compound": "CCc1c(C(=O)O)cnn1-c1cccc(-c2cccc3c2N(Cc2ccc(C4CCN(C(=O)C5CC5)CC4)cc2C)CC3C)n1", "note": "(single isomer, unassigned; (+)) [(+)-20-2, (+)-1-(6-(1-(4-(1-(Cyclopropanecarbonyl)piperidin-4-yl)-2-methylbenzyl)-3-methylindolin-7-yl)pyridin-2-yl)-5-ethyl-1H-pyrazole-4-carboxylic acid]", "EC50": 9.9}
    ]}
  ]
}
